According to ChEMBL document CHEMBL1143190, “Synthesis and structure-activity relationships of soluble 8-substituted 4-(2-chlorophenyl)-9-hydroxypyrrolo[3,4-c]carbazole-1,3(2H,6H)-diones as inhibitors of the Wee1 and Chk1 checkpoint kinases” (Bioorg Med Chem Lett, 2008):

Experiments:
Wee1-like protein kinase = Wee1-like protein kinase (Homo sapiens, UniProt P30291)
physchem [1] = experiment: physchem
Description: Dissociation constant, pKa of the compound

HT-29 [2] = experiment: cells; assay type: cell-based; conditions: Homo sapiens
Description: Inhibition of human Cdc2/cyclin B-mediated histone H1 kinase phosphorylation in HT29 cells

[3] = molecular target: Cyclin-dependent kinase 1 (Homo sapiens, UniProt P06493); assay type: cell-based; conditions: ht-29
Description: Inhibition of human Cdc2 kinase PY15 phosphorylation in HT29 cells by Western blot

HT-29 [4] = experiment: cells; assay type: functional, cell-based; conditions: Homo sapiens, HT-29, 72 h
Description: Cytotoxicity against human HT29 cells after 72 hrs

[5] = molecular target: T1, Serine/threonine-protein kinase Chk1 (Homo sapiens, UniProt O14757)
T1 sequence (O14757 whole entry): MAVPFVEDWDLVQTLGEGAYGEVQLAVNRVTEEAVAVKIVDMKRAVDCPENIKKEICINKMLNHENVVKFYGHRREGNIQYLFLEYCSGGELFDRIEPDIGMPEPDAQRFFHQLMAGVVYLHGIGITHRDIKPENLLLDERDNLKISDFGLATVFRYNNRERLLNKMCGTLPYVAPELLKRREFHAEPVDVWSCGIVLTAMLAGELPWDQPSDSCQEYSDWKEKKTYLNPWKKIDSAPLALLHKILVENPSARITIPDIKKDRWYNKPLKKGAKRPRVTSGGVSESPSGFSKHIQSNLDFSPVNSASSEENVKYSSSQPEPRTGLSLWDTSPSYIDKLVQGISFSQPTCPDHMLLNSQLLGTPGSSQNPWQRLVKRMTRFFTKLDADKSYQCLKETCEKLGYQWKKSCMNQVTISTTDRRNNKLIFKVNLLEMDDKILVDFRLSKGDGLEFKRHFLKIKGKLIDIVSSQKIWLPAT

physchem [6] = conditions: buffer
Description: Aqueous solubility in water

Cyclin-dependent kinase 1, sequence (P06493 whole entry): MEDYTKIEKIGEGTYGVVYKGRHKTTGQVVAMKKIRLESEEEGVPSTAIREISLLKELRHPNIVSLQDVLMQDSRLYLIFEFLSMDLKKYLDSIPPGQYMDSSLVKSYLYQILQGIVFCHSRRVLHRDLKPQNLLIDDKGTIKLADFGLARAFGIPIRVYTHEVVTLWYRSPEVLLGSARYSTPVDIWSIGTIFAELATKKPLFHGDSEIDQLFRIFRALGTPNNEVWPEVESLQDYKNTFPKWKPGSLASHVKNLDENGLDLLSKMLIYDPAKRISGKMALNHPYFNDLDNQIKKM
Wee1-like protein kinase, sequence (P30291 whole entry): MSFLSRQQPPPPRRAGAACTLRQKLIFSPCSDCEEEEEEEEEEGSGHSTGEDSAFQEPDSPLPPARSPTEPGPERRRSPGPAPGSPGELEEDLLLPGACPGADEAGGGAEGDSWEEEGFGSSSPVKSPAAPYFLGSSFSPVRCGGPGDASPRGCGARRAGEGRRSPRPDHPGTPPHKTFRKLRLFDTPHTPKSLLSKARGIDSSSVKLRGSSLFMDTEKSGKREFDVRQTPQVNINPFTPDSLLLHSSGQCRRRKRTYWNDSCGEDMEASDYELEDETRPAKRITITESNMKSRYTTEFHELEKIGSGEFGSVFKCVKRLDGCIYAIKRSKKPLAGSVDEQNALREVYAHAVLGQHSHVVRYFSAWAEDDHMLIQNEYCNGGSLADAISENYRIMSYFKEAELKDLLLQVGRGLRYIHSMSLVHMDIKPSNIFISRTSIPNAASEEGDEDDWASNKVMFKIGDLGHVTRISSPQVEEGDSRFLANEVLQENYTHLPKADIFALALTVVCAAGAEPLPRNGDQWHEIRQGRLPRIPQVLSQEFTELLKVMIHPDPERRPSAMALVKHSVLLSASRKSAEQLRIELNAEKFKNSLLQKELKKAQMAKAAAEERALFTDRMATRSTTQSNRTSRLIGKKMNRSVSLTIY

Question: What does the source list for `CN(C)CCCCc1cc2c(cc1O)c1c3c(c(-c4ccccc4Cl)cc1n2C)C(=O)NC3=O`?
Answer: IC50 (Wee1-like protein kinase): 34 nM; pKa (physchem [1]): 9.5

Question: Which IC50 (HT-29 [2]) does the source give for `Cn1c2cc(OCCCN3CCCC3)c(O)cc2c2c3c(c(-c4ccccc4Cl)cc21)C(=O)NC3=O` here?
Answer: The IC50 was 230 nM.

Question: What about the IC50 [3] of the same compound?
Answer: The IC50 was 30 nM.

Question: And the IC50 (HT-29 [4])?
Answer: Its IC50 is 310 nM.

Question: What about the pKa (physchem [1]) of the same compound?
Answer: The pKa was 10.5.

Question: With `O=C1NC(=O)c2c1c(-c1ccccc1Cl)cc1c2c2cc(O)c(CCCCN3CCCC3)cc2n1CCO` as the compound, how does the IC50 (Wee1-like protein kinase) read?
Answer: The IC50 was 24 nM.

Question: And the pKa (physchem [1])?
Answer: The pKa was 10.5.

Question: For `O=C1NC(=O)c2c1c(-c1ccccc1Cl)cc1[nH]c3cc(OCCCN4CCOCC4)c(O)cc3c21`, which IC50 (Wee1-like protein kinase) is on record?
Answer: Its IC50 is 26 nM.

Question: What about the pKa (physchem [1]) of the same compound?
Answer: The pKa was 7.8.

Question: With `Cn1c2cc(S(=O)(=O)CCCN3CCCC3)c(O)cc2c2c3c(c(-c4ccccc4Cl)cc21)C(=O)NC3=O` as the compound, how does the IC50 (Wee1-like protein kinase) read?
Answer: Its IC50 is 160 nM.

Question: What about the pKa (physchem [1]) of the same compound?
Answer: Its pKa is 10.5.

Question: Which IC50 (Wee1-like protein kinase) does the source give for `O=C1NC(=O)c2c1c(-c1ccccc1Cl)cc1c2c2cc(O)c(CCCCN3CCOCC3)cc2n1CCO` here?
Answer: The IC50 was 19 nM.

Question: What about the pKa (physchem [1]) of the same compound?
Answer: The pKa was 7.8.

Question: Which results are given for `O=C1NC(=O)c2c1c(-c1ccccc1Cl)cc1c2c2cc(O)c(OCCCN3CCCC3)cc2n1CCO`?
Answer: IC50 (Wee1-like protein kinase): 24 nM; IC50 (HT-29 [2]): 860 nM; IC50 [3]: 30 nM; pKa (physchem [1]): 10.5

Question: Which results are given for `Cn1c2cc([S+]([O-])CCCN3CCCC3)c(O)cc2c2c3c(c(-c4ccccc4Cl)cc21)C(=O)NC3=O` (configuration not stated)?
Answer: IC50 (Wee1-like protein kinase): 33 nM; IC50 [5]: 7 nM; pKa (physchem [1]): 10.5

Question: With `O=C1NC(=O)c2c1c(-c1ccccc1Cl)cc1[nH]c3cc(OCCCN4CCCC4)c(O)cc3c21` as the compound, how does the IC50 (Wee1-like protein kinase) read?
Answer: Its IC50 is 35 nM.

Question: What about the pKa (physchem [1]) of the same compound?
Answer: Its pKa is 10.5.

Question: For `Cn1c2cc(CCCCN3CCCC3)c(O)cc2c2c3c(c(-c4ccccc4Cl)cc21)C(=O)NC3=O`, which IC50 (Wee1-like protein kinase) is on record?
Answer: Its IC50 is 36 nM.

Question: What about the pKa (physchem [1]) of the same compound?
Answer: The pKa was 10.5.

Question: With `O=C1NC(=O)c2c1c(-c1ccccc1Cl)cc1c2c2cc(O)c(OCCCN3CCOCC3)cc2n1CCO` as the compound, how does the IC50 (Wee1-like protein kinase) read?
Answer: The IC50 was 15 nM.

Question: And the IC50 (HT-29 [2])?
Answer: The IC50 was 530 nM.

Question: What about the IC50 [3] of the same compound?
Answer: The IC50 was 250 nM.

Question: And the pKa (physchem [1])?
Answer: The pKa was 7.8.

Question: Which pKa (physchem [1]) does the source give for `Cn1c2cc(C(=O)NCCN3CCCC3)c(O)cc2c2c3c(c(-c4ccccc4Cl)cc21)C(=O)NC3=O` here?
Answer: Its pKa is 10.5.

Question: Which IC50 (Wee1-like protein kinase) does the source give for `Cn1c2cc(OCCCN3CCOCC3)c(O)cc2c2c3c(c(-c4ccccc4Cl)cc21)C(=O)NC3=O` here?
Answer: Its IC50 is 57 nM.

Question: What about the pKa (physchem [1]) of the same compound?
Answer: The pKa was 7.8.

Question: With `CN(C)CCCOc1cc2[nH]c3cc(-c4ccccc4Cl)c4c(c3c2cc1O)C(=O)NC4=O` as the compound, how does the IC50 (Wee1-like protein kinase) read?
Answer: The IC50 was 26 nM.

Question: What about the pKa (physchem [1]) of the same compound?
Answer: The pKa was 9.5.

Question: What does the source list for `O=C1NC(=O)c2c1c(-c1ccccc1Cl)cc1[nH]c3cc(CCCCN4CCCC4)c(O)cc3c21`?
Answer: IC50 (Wee1-like protein kinase): 50 nM; IC50 (HT-29 [2]): 780 nM; IC50 [3]: 200 nM; pKa (physchem [1]): 10.5

Question: What does the source list for `CN(C)CCCCc1cc2[nH]c3cc(-c4ccccc4Cl)c4c(c3c2cc1O)C(=O)NC4=O`?
Answer: IC50 (Wee1-like protein kinase): 49 nM; IC50 (HT-29 [2]): 880 nM; IC50 [3]: 250 nM; pKa (physchem [1]): 9.5

Question: What does the source list for `CN(C)CCCOc1cc2c(cc1O)c1c3c(c(-c4ccccc4Cl)cc1n2CCO)C(=O)NC3=O`?
Answer: IC50 (Wee1-like protein kinase): 18 nM; IC50 (HT-29 [2]): 750 nM; IC50 [3]: 250 nM; pKa (physchem [1]): 9.5

Question: Which results are given for `Cn1c2cc(S(=O)(=O)NCCN3CCCC3)c(O)cc2c2c3c(c(-c4ccccc4Cl)cc21)C(=O)NC3=O`?
Answer: IC50 (Wee1-like protein kinase): 46 nM; pKa (physchem [1]): 10.5

Question: Which results are given for `O=C1NC(=O)c2c1c(-c1ccccc1Cl)cc1[nH]c3cc(CCCCN4CCOCC4)c(O)cc3c21`?
Answer: IC50 (Wee1-like protein kinase): 37 nM; IC50 (HT-29 [2]): 1230 nM; IC50 [3]: 250 nM; pKa (physchem [1]): 7.8

Question: With `Cn1c2cc(SCCCN3CCCC3)c(O)cc2c2c3c(c(-c4ccccc4Cl)cc21)C(=O)NC3=O` as the compound, how does the IC50 (Wee1-like protein kinase) read?
Answer: The IC50 was 20 nM.

Question: And the pKa (physchem [1])?
Answer: Its pKa is 10.5.

Question: Which IC50 [3] does the source give for `CN(C)CCCOc1cc2c(cc1O)c1c3c(c(-c4ccccc4Cl)cc1n2C)C(=O)NC3=O` here?
Answer: The IC50 was 10 nM.

Question: What about the IC50 (HT-29 [4]) of the same compound?
Answer: Its IC50 is 230 nM.

Question: And the pKa (physchem [1])?
Answer: Its pKa is 9.5.

Question: What does the source list for `O=C1NC(=O)c2c1c(-c1ccccc1Cl)cc1c2c2cc(O)ccc2n1CCCO`?
Answer: IC50 [3]: 250 nM; solubility (physchem [6]): < 3 µg/mL

Question: Which IC50 (Wee1-like protein kinase) does the source give for `Cn1c2cc(CCCCN3CCOCC3)c(O)cc2c2c3c(c(-c4ccccc4Cl)cc21)C(=O)NC3=O` here?
Answer: The IC50 was 30 nM.

Question: What about the pKa (physchem [1]) of the same compound?
Answer: Its pKa is 7.8.

Question: Which solubility (physchem [6]) does the source give for `CN(C)CCCOc1cc2c(cc1O)c1c3c(c(-c4ccccc4Cl)cc1n2C)C(=O)NC3=O.Cl` here?
Answer: The solubility was 2200 µg/mL.
